The values below come from patent publication US20250145665A1, “MACROCYCLIC PEPTIDES USEFUL AS MODULATORS OF TNF ALPHA” (Bristol-Myers Squibb Company, priority 2023, published 2025).

Positions of bridges follow the written chain, without caps; N, C: chain ends. Non-standard residues stand in square brackets, D forms with d. Residues, ends and D or L forms follow the SMILES beside them. Ala(morpholin-4-yl) = N[C@@H](CN1CCOCC1)C(=O)O; Bip = N[C@@H](Cc1ccc(-c2ccccc2)cc1)C(=O)O; Val(3-OH) = CC(C)(O)[C@H](N)C(=O)O; Sar = CNCC(=O)O

The target in this test is TNFα (Homo sapiens, UniProt P01375). The test can be described thus: TNF-Induced HEK-Blue Assay. Particulars: HEK-Blue-CD40L cells, NF-kB-driven secreted alkaline phosphatase reporter; TNFα 0.5 ng/ml; 18 h; read-out: TNF induced HEK-Blue assay IC50 value. It is filed as cell-based.
TNFα, sequence (P01375 77-233 limits assumed): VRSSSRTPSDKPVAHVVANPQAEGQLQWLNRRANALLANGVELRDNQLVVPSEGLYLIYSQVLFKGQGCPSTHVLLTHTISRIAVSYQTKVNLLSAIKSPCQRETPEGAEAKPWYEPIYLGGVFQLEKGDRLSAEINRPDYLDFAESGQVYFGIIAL
Description: TNFα (final concentration 0.5 ng/ml) or CD40L (final concentration 30 ng/ml) in assay buffer [DMEM, 4.5 g/l glucose (Gibco, Cat. 21063-029), 10% FBS (Sigma, F4135), 1% Penicillin-Streptomycin (Gibco, Cat. 15140-122), 1% Anti-Anti (Gibco, Cat. 15240-112) and 2 mM L-glutamine (Gibco, Cat. 25030-081)] was then added to the assay plate. After a 30 minute pre-incubation at 37° C. and 5% CO2, HEK-Blue™-CD40L cells (INVIVOGEN, Cat. Code hkb-cd40) containing a NF-kB-driven secreted alkaline phosphatase reporter gene were seeded into the assay plate at a density of 20,000 cells per well. This plate was then incubated for 18 h at 37° C. and 5% CO2. Secreted alkaline phosphatase expression was measured using QUANTI-Blue™ (INVIVOGEN, Cat. Code rep-qb1) according to manufacturer's specifications and the assay plate was read on a PerkinElmer Envision at 620 nm.
IC50 values were determined after correcting for background [(sample read-mean of low control)/(mean of high control-mean of low control)] where by the low control is DMSO without stimulation and high control is DMSO with stimulation.
Regarding `CC(C)C[C@@H]1NC(=O)[C@H](Cc2ccc(O)cc2)NC(=O)[C@H](C(C)C)NC(=O)[C@@H]2CCCN2C(=O)[C@H](C(C)C)NC(=O)[C@@H](CCCNC(=N)N)NC(=O)[C@H](CC(=O)O)NC(=O)[C@@H]2CCCN2C(=O)CNC(=O)[C@H](Cc2ccc(-c3ccccc3)cc2)NC(=O)[C@H](Cc2ccc(-c3ccccc3)cc2)NC(=O)[C@H](CN2CCOCC2)NC(=O)CSC[C@@H](C(=O)NCC(N)=O)NC1=O` [Example 129] ({CH2CO}-[Ala(morpholin-4-yl)][Bip][Bip]GPD[dR]VPVYLCG-NH2; thioether N-13), the IC50 (usually the midpoint of a concentration-inhibition curve) was 200 to 2000 nM. Under `CC(C)C[C@@H]1NC(=O)[C@H](CCCNC(=N)N)NC(=O)[C@H](C(C)C)NC(=O)[C@@H]2CCCN2C(=O)[C@H](C(C)C)NC(=O)[C@@H](CCCNC(=N)N)NC(=O)[C@H](CC(=O)O)NC(=O)[C@@H]2CCCN2C(=O)CNC(=O)[C@H](Cc2ccc(-c3ccccc3)cc2)NC(=O)[C@H](Cc2ccc(-c3ccccc3)cc2)NC(=O)[C@H](CN2CCOCC2)NC(=O)CSC[C@@H](C(=O)NCC(N)=O)NC1=O` [Example 130] ({CH2CO}-[Ala(morpholin-4-yl)][Bip][Bip]GPD[dR]VPVRLCG-NH2; thioether N-13) stands 200 to 2000 nM; under `CC(C)C[C@@H]1NC(=O)[C@H](Cc2ccc(O)cc2)NC(=O)[C@H](C(C)C)NC(=O)[C@@H]2CCCN2C(=O)[C@H](C(C)C)NC(=O)[C@@H](CCCNC(=N)N)NC(=O)[C@H](CC(=O)O)NC(=O)[C@H](Cc2ccc(O)cc2)NC(=O)CNC(=O)[C@H](Cc2ccc(-c3ccccc3)cc2)NC(=O)[C@H](Cc2ccc(-c3ccccc3)cc2)NC(=O)[C@H](CN2CCOCC2)NC(=O)CSC[C@@H](C(=O)NCC(N)=O)NC1=O` [Example 131] ({CH2CO}-[Ala(morpholin-4-yl)][Bip][Bip]GYD[dR]VPVYLCG-NH2; thioether N-13), 50 to 200 nM; under `CC(C)C[C@@H]1NC(=O)[C@H](CCCNC(=N)N)NC(=O)[C@H](C(C)C)NC(=O)[C@@H]2CCCN2C(=O)[C@H](C(C)C)NC(=O)[C@@H](CCCNC(=N)N)NC(=O)[C@H](CC(=O)O)NC(=O)[C@H](Cc2ccc(O)cc2)NC(=O)CNC(=O)[C@H](Cc2ccc(-c3ccccc3)cc2)NC(=O)[C@H](Cc2ccc(-c3ccccc3)cc2)NC(=O)[C@H](CN2CCOCC2)NC(=O)CSC[C@@H](C(=O)NCC(N)=O)NC1=O` [Example 132] ({CH2CO}-[Ala(morpholin-4-yl)][Bip][Bip]GYD[dR]VPVRLCG-NH2; thioether N-13), 50 to 200 nM. As to `CC(C)C[C@@H]1NC(=O)[C@H](Cc2ccc(O)cc2)NC(=O)[C@H](C(C)C)NC(=O)[C@@H]2CCCN2C(=O)[C@H](C(C)C)NC(=O)[C@H](CCCNC(=N)N)NC(=O)[C@H](CC(N)=O)NC(=O)[C@@H]2CCCN2C(=O)CN(C)C(=O)[C@H](Cc2ccc(-c3ccccc3)cc2)NC(=O)[C@H](Cc2ccc(-c3ccccc3)cc2)NC(=O)[C@H](CN2CCOCC2)NC(=O)CSC[C@@H](C(=O)NCC(N)=O)NC1=O` [Example 133] ({CH2CO}-[Ala(morpholin-4-yl)][Bip][Bip][Sar]PNRVPVYLCG-NH2; thioether N-13), the IC50 lay in the range of 200 to 2000 nM. Regarding `CC(C)C[C@@H]1NC(=O)[C@H](Cc2ccc(O)cc2)NC(=O)[C@H](C(C)C)NC(=O)CN(C)C(=O)[C@H](C(C)C)NC(=O)[C@@H](CCCNC(=N)N)NC(=O)[C@H](CC(=O)O)NC(=O)[C@H](Cc2ccc(O)cc2)NC(=O)CN(C)C(=O)[C@H](Cc2ccc(-c3ccccc3)cc2)NC(=O)[C@H](Cc2ccc(-c3ccccc3)cc2)NC(=O)[C@H](CN2CCOCC2)NC(=O)CSC[C@@H](C(=O)NCC(N)=O)NC1=O` [Example 134] ({CH2CO}-[Ala(morpholin-4-yl)][Bip][Bip][Sar]YD[dR]V[Sar]VYLCG-NH2; thioether N-13), the IC50 lay in the range of 50 to 200 nM. For `CC(C)C[C@@H]1NC(=O)[C@H](CCCNC(=N)N)NC(=O)[C@H](C(C)C)NC(=O)CN(C)C(=O)[C@H](C(C)C)NC(=O)[C@@H](CCCNC(=N)N)NC(=O)[C@H](CC(=O)O)NC(=O)[C@H](Cc2ccc(O)cc2)NC(=O)CN(C)C(=O)[C@H](Cc2ccc(-c3ccccc3)cc2)NC(=O)[C@H](Cc2ccc(-c3ccccc3)cc2)NC(=O)[C@H](CN2CCOCC2)NC(=O)CSC[C@@H](C(=O)NCC(N)=O)NC1=O` [Example 135] ({CH2CO}-[Ala(morpholin-4-yl)][Bip][Bip][Sar]YD[dR]V[Sar]VRLCG-NH2; thioether N-13), the IC50 was in the range of 200 to 2000 nM. As to `CC(C)C[C@@H]1NC(=O)[C@H](Cc2ccc(O)cc2)NC(=O)[C@H](C(C)C)NC(=O)CN(C)C(=O)[C@H](C(C)C)NC(=O)[C@@H](CCCNC(=N)N)NC(=O)[C@H](CC(=O)O)NC(=O)[C@@H]2CCCN2C(=O)CN(C)C(=O)[C@H](Cc2ccc(-c3ccccc3)cc2)NC(=O)[C@H](Cc2ccc(-c3ccccc3)cc2)NC(=O)[C@H](CN2CCOCC2)NC(=O)CSC[C@@H](C(=O)NCC(N)=O)NC1=O` [Example 136] ({CH2CO}-[Ala(morpholin-4-yl)][Bip][Bip][Sar]PD[dR]V[Sar]VYLCG-NH2; thioether N-13), the IC50 lay in the range of 50 to 200 nM. Under `CC(C)C[C@@H]1NC(=O)[C@H](Cc2ccc(O)cc2)NC(=O)[C@H](C(C)C)NC(=O)CNC(=O)[C@H](C(C)C)NC(=O)[C@@H](CCCNC(=N)N)NC(=O)[C@H](CC(=O)O)NC(=O)[C@H](Cc2ccc(O)cc2)NC(=O)CN(C)C(=O)[C@H](Cc2ccc(-c3ccccc3)cc2)NC(=O)[C@H](Cc2ccc(-c3ccccc3)cc2)NC(=O)[C@H](CN2CCOCC2)NC(=O)CSC[C@@H](C(=O)NCC(N)=O)NC1=O` [Example 137] ({CH2CO}-[Ala(morpholin-4-yl)][Bip][Bip][Sar]YD[dR]VGVYLCG-NH2; thioether N-13) stands 200 to 2000 nM; under `CC(C)C[C@@H]1NC(=O)[C@H](CCCNC(=N)N)NC(=O)[C@H](C(C)C)NC(=O)CNC(=O)[C@H](C(C)C)NC(=O)[C@H](CCCNC(=N)N)NC(=O)[C@H](CC(=O)O)NC(=O)[C@H](Cc2ccc(O)cc2)NC(=O)CN(C)C(=O)[C@H](Cc2ccc(-c3ccccc3)cc2)NC(=O)[C@H](Cc2ccc(-c3ccccc3)cc2)NC(=O)[C@H](CN2CCOCC2)NC(=O)CSC[C@@H](C(=O)NCC(N)=O)NC1=O` [Example 138] ({CH2CO}-[Ala(morpholin-4-yl)][Bip][Bip][Sar]YDRVGVRLCG-NH2; thioether N-13), 200 to 2000 nM. Under `CC(C)C[C@@H]1NC(=O)[C@H](Cc2ccc(O)cc2)NC(=O)[C@H](C(C)C)NC(=O)CNC(=O)[C@H](C(C)C)NC(=O)[C@H](CCCNC(=N)N)NC(=O)[C@H](CC(=O)O)NC(=O)[C@@H]2CCCN2C(=O)CN(C)C(=O)[C@H](Cc2ccc(-c3ccccc3)cc2)NC(=O)[C@H](Cc2ccc(-c3ccccc3)cc2)NC(=O)[C@H](CN2CCOCC2)NC(=O)CSC[C@@H](C(=O)NCC(N)=O)NC1=O` [Example 139] ({CH2CO}-[Ala(morpholin-4-yl)][Bip][Bip][Sar]PDRVGVYLCG-NH2; thioether N-13) stands 200 to 2000 nM; under `CC(C)C[C@@H]1NC(=O)[C@H](Cc2ccc(O)cc2)NC(=O)[C@H](C(C)C)NC(=O)CN(C)C(=O)[C@H](C(C)C)NC(=O)[C@H](CCCNC(=N)N)NC(=O)[C@H](CC(=O)O)NC(=O)[C@H](Cc2ccc(O)cc2)NC(=O)CN(C)C(=O)[C@H](Cc2ccc(-c3ccccc3)cc2)NC(=O)[C@H](Cc2ccc(-c3ccccc3)cc2)NC(=O)[C@H](C(C)(C)O)NC(=O)CSC[C@@H](C(=O)NCC(N)=O)NC1=O` [Example 140] ({CH2CO}-[Val(3-OH)][Bip][Bip][Sar]YDRV[Sar]VYLCG-NH2; thioether N-13), 200 to 2000 nM.
